ChEMBL document CHEMBL5030562, “Synthesis and antiviral evaluation of cytisine derivatives against dengue virus types 1 and 2” (Bioorg Med Chem Lett, 2021)
Calls of active or inactive are those of the source. The rule behind the calls is not given here.

Experiments:
[1] = test system: dengue virus type 2; experiment: Antiviral activity against Dengue virus 2 infected in African green monkey Vero E6 cells assessed as inhibition of viral replication at post entry stage measured after 96 hrs by DAPI staining based fluorescence microscopic analysis; format: functional, organism-based; details: Vero C1008, 96 h
[2] = test system: dengue virus type 2; experiment: Antiviral activity against DENV2 infected in African green monkey Vero E6 cells assessed as reduction in induced cytopathic effect at 10 uM after 96 hrs by immunofluorescent staining based inverted microscopic analysis; format: functional, organism-based
[3] = Selectivity index, ratio of CC50 for cytotoxicity in human A549 cells to IC50 for Antiviral activity against DENV2 infected in African green monkey Vero E6 cells; format: toxicity, cell-based
[4] = test system: dengue virus type 1; experiment: Antiviral activity against DENV1 infected in African green monkey Vero E6 cells assessed as inhibition of virus induced cytopathic effect measured after 96 hrs by immunofluorescent staining based inverted microscopic analysis; format: functional, organism-based; details: Vero C1008, 96 h
[5] = test system: Influenza A virus; experiment: Antiviral activity against Influenza A virus; format: functional, organism-based
[6] = test system: dengue virus type 1; experiment: Antiviral activity against DENV1 infected in African green monkey Vero E6 cell assessed as inhibition of virus induced cytopathic effect at 10 uM measured after 96 hrs by immunofluorescent staining based inverted microscopic analysis relative to control; format: functional; details: Vero C1008
[7] = test system: dengue virus type 2; experiment: Antiviral activity against Dengue virus 2 infected in African green monkey Vero E6 cells assessed as inhibition of viral replication at attachment stage measured after 96 hrs by DAPI staining based fluorescence microscopic analysis; format: functional, organism-based; details: Vero C1008, 96 h
[8] = test system: dengue virus type 2; experiment: Antiviral activity against Dengue virus 2 infected in African green monkey Vero E6 cells assessed as inhibition of viral replication at entry stage measured after 96 hrs by DAPI staining based fluorescence microscopic analysis; format: functional, organism-based; details: Vero C1008, 96 h
[9] = test system: dengue virus type 1; experiment: Selectivity index, ratio of CC50 for cytotoxicity in African green monkey Vero E6 cells to IC50 for Antiviral activity against DENV1 infected in African green monkey Vero E6 cells; format: functional, Vero C1008
[10] = Cytotoxicity against African green monkey Vero E6 cells assessed as reduction in cell viability by MTT assay; format: cell-based, Vero C1008; details: chlorocebus sabaeus
[11] = Selectivity index, ratio of CC50 for cytotoxicity in African green monkey Vero E6 cells to IC50 for Antiviral activity against DENV2 infected in African green monkey Vero E6 cells; format: toxicity, cell-based, Vero C1008; details: read-out: Ratio CC50/IC50
[12] = test system: dengue virus type 2; experiment: Antiviral activity against DENV2 infected in human A549 cells assessed as inhibition of virus induced cytopathic effect measured after 96 hrs by immunofluorescent staining based inverted microscopic analysis; format: functional, organism-based; details: A549, 96 h
[13] = test system: dengue virus type 1; experiment: Antiviral activity against DENV1 infected in African green monkey Vero E6 cells assessed as reduction in induced cytopathic effect at 10 uM after 96 hrs by immunofluorescent staining based inverted microscopic analysis; format: functional, organism-based
[14] = test system: A549; experiment: Cytotoxicity against human A549 cells assessed as reduction in cell viability by MTT assay; format: functional
[15] = test system: Hepatitis B virus; experiment: Antiviral activity against Hepatitis B virus; format: functional, organism-based
[16] = test system: dengue virus type 2; experiment: Antiviral activity against DENV2 infected in African green monkey Vero E6 cells assessed as inhibition of virus induced cytopathic effect at 10 uM measured after 96 hrs by immunofluorescent staining based inverted microscopic analysis relative to control; format: functional; details: Vero C1008
[17] = test system: Human respirovirus 3; experiment: Antiviral activity against Parainfluenza virus type 3; format: functional, organism-based
[18] = test system: dengue virus type 2; experiment: Antiviral activity against DENV2 infected in African green monkey Vero E6 cells assessed as inhibition of virus induced cytopathic effect measured after 96 hrs by immunofluorescent staining based inverted microscopic analysis; format: functional, organism-based; details: Vero C1008, 96 h

Row | Compound | IC50 [1] [µM] | Activity [2] | selectivity ratio [3] | IC50 [4] [µM] | IC50 [5] [µM] | inhibition at 10 µM [6] [%] | IC50 [7] [µM] | IC50 [8] [µM] | Ratio CC50/IC50 [9] | CC50 [10] [µM] | selectivity ratio [11] | IC50 [12] [µM] | Activity [13] | CC50 [14] [µM] | IC50 [15] [µM] | inhibition at 10 µM [16] [%] | IC50 [17] [µM] | IC50 [18] [µM]
1 | CN1C[C@H]2C[C@@H](C1)c1ccc([N+](=O)[O-])c(=O)n1C2 | 1.37 | Active | > 64.9 | 2.4 | > 3 | 61.2 | 0.837 | 1.13 | >20.8 | > 50 | > 500 | 0.77 | Active | > 50 | > 3 | 76.7 | > 3 | –
2 | COC(=O)CN1C[C@H]2C[C@@H](C1)c1ccc(NCc3cn(C)c(=O)n(C)c3=O)c(=O)n1C2 | – | Active | – | – | – | – | – | – | – | > 50 | – | – | – | > 50 | – | 63.9 | – | –
3 | CCOC(=O)CNC(=S)Nc1ccc2n(c1=O)C[C@@H]1C[C@H]2CN(C)C1 | – | Active | – | – | – | – | – | – | – | > 50 | – | – | – | > 50 | – | 60.9 | – | –
4 | O=c1ccc(Cl)c2n1C[C@@H]1C[C@H]2CN(C(=S)Nc2ccccc2)C1 | – | Active | – | – | – | – | – | – | – | > 50 | – | – | – | > 50 | – | 11.2 | – | –
5 | CN1C[C@H]2C[C@@H](C1)c1ccc(NCc3cn(C)c(=O)n(C)c3=O)c(=O)n1C2 (single isomer, unassigned) | 0.237 | Active | > 75.8 | 1.38 | > 3 | 73.9 | 9.3 | 1.84 | >36.2 | > 50 | > 109 | 0.66 | Active | > 50 | > 3 | 79.2 | > 3 | < 0.1
6 | CN1C[C@H]2C[C@@H](C1)c1ccc(NC/C=C/c3ccccc3)c(=O)n1C2 | – | Active | – | – | – | – | – | – | – | > 50 | – | – | – | > 50 | – | 3.2 | – | –
7 | C=CCN1C[C@H]2C[C@@H](C1)c1ccc(NCc3cn(C)c(=O)n(C)c3=O)c(=O)n1C2 | – | Active | – | – | – | – | – | – | – | > 50 | – | – | – | > 50 | – | 43.3 | – | –
8 | CN1C[C@H]2C[C@@H](C1)c1ccc(NCc3ccc(O)cc3)c(=O)n1C2 | < 0.1 | Active | > 64.1 | 0.97 | > 3 | 64.8 | > 10 | 0.471 | >51.5 | > 50 | > 21.7 | 0.78 | Active | > 50 | > 3 | 70.6 | > 3 | 2.3
9 | CCOC(=O)CNC(=O)Nc1ccc2n(c1=O)C[C@@H]1C[C@H]2CN(C)C1 (single isomer, unassigned) | – | Active | – | – | – | – | – | – | – | > 50 | – | – | – | > 50 | – | 40.3 | – | –
10 | C=CCNC(=S)N1C[C@H]2C[C@@H](C1)c1ccc([N+](=O)[O-])c(=O)n1C2 | – | Active | – | – | – | – | – | – | – | > 50 | – | – | – | > 50 | – | 48.9 | – | –
11 | C=CCNC(=S)N1C[C@H]2C[C@@H](C1)c1cccc(=O)n1C2 | 7.51 | Active | > 500 | 0.14 | > 3 | 81.2 | 0.315 | < 0.1 | >357.1 | > 50 | > 500 | < 0.1 | Active | > 50 | > 3 | 86.4 | > 3 | < 0.1
12 | CC(C)NC(=S)Nc1ccc2n(c1=O)C[C@@H]1CC2CN(C)C1 (single isomer, unassigned) | – | Active | – | – | – | – | – | – | – | > 50 | – | – | – | > 50 | – | 61.4 | – | –
13 | Cn1cc(CNc2ccc3n(c2=O)C[C@@H]2C[C@H]3CN(C(=O)Nc3ccccc3)C2)c(=O)n(C)c1=O | < 0.1 | Active | > 106 | 0.49 | > 3 | 57.7 | 6.45 | 0.844 | >102 | > 50 | > 500 | 0.47 | Active | > 50 | > 3 | 74 | > 3 | < 0.1
14 | O=c1cccc2n1C[C@@H]1C[C@H]2CN(C(=S)Nc2ccccc2)C1 | – | Active | – | – | – | – | – | – | – | > 50 | – | – | – | > 50 | – | 59.4 | – | –
15 | Cn1cc(CNc2ccc3n(c2=O)C[C@@H]2C[C@H]3CN3CCCCC23)c(=O)n(C)c1=O (stereo partly specified) | – | Active | – | – | – | – | – | – | – | > 50 | – | – | – | > 50 | – | 53.3 | – | –
16 | CC(C)NC(=O)Nc1ccc2n(c1=O)C[C@@H]1C[C@H]2CN(C)C1 (single isomer, unassigned) | – | Active | – | – | – | – | – | – | – | > 50 | – | – | – | > 50 | – | 19.7 | – | –
17 | Cn1cc(CNc2ccc3n(c2=O)C[C@@H]2C[C@H]3CN(Cc3ccccc3)C2)c(=O)n(C)c1=O (single isomer, unassigned) | – | Active | – | – | – | – | – | – | – | > 50 | – | – | – | > 50 | – | 58.8 | – | –
18 | CN1C[C@H]2C[C@@H](C1)c1ccc(NCc3ccccc3O)c(=O)n1C2 | – | Active | – | – | – | – | – | – | – | > 50 | – | – | – | > 50 | – | 39 | – | –
